# In patent publication US4594358A, “Analgesic method” (Eli Lilly and Company, priority 1985, dated 1986):
# Where a name gives a salt, the structure may show the parent alone. Read-outs that look alike come from different tables or passages of the source.
# Legend:
# [1] = test system: monoamine uptake, especially serotonin; settings: U.S. Pat. No. 4,313,896; cited from earlier work
# mouse writhing = mouse writhing assay (acetic acid induced); assay type: in vivo, mouse (albino male mice); settings: for ability to potentiate analgesic effect of dextropropoxyphene (in words): mouse, in vivo; for Percent Inhibition of Writhing: Table 4, dextropropoxyphene napsylate 40 mg/kg + saline p.o.
# Description: Writhing, which is characterized by contraction of the abdominal musculature, extension of the hindlegs, and rotation of the trunk, was induced in albino male mice. The extent to which writhing is reduced following administration of a test compound is an indication of the analgesic activity of that compound.
# Mice, weighing 18-24 grams, were fasted overnight and given the test compounds by gavage or subcutaneously. Writhing was then induced by the intraperitoneal administration of acetic acid (0.55 to 0.60 percent). Each treatment group consisted of five mice. The total number of writhes for the treatment group was determined during a 10-minute observation period starting five minutes after acetic acid administration.
# [2] = administered alone (U.S. Pat. No. 4,035,511) or with morphine (U.S. Pat. No. 4,083,982); cited from earlier work
structure (smiles),measurement,setting,value
"NCCC(Oc1ccc(C(F)(F)F)cc1)c1ccccc1 (stereo not shown) [Norfluoxetine, 3-(4-trifluoromethylphenoxy)-3-phenylpropylamine]",monoamine uptake blockade (in words),[1],"block monoamine uptake, especially serotonin"
same,ability to potentiate analgesic effect of dextropropoxyphene (in words),mouse writhing,potentiate the analgesic effect of dextropropoxyphene
CNCCC(Oc1ccc(C(F)(F)F)cc1)c1ccccc1 (stereo not shown) [Fluoxetine Hydrochloride],analgesic activity in mouse writhing test,"mouse writhing; fluoxetine hydrochloride alone, doses up to 160 mg/kg, 30-180 minutes before writhing was induced",devoid of analgesic activity
"CNCCC(Oc1ccc(C(F)(F)F)cc1)c1ccccc1 (stereo not shown) [Fluoxetine, 3-(4-trifluoromethylphenoxy)-N-methyl-3-phenylpropylamine]",analgesic properties (in words),[2],possess analgesic properties
same,ability to potentiate analgesic effect of dextropropoxyphene (in words),mouse writhing,potentiate the analgesic effect of dextropropoxyphene
CCC(=O)O[C@](Cc1ccccc1)(c1ccccc1)[C@H](C)CN(C)C [Dextropropoxyphene Napsylate],ED50,"mouse writhing; Mus musculus, po, 0.5 h, Table 3, saline pretreatment p.o. three hours prior, dextropropoxyphene napsylate p.o. 30 minutes prior to assessment, read-out: Inhibition of Mouse Writhing ED50",44.2 mg/kg
same,ED50,"mouse writhing; Mus musculus, po, 1 h, read-out: Inhibition of Mouse Writhing ED50",49.3 mg/kg
same,inhibition at 10 mg/kg,"mouse writhing; Mus musculus, po, 1 h, read-out: Percent Inhibition of Mouse Writhing",0%
same,ED50,"mouse writhing; Mus musculus, sc, 0.5 h, read-out: Induced Inhibition of Mouse Writhing ED50",9.95 mg/kg
same,Percent Inhibition of Writhing,mouse writhing; 30 minutes after administration,40%
same,Percent Inhibition of Writhing,mouse writhing; 60 minutes after administration,6%
same,Percent Inhibition of Writhing,mouse writhing; 70 minutes after administration,10%
same,Percent Inhibition of Writhing,mouse writhing; 120 minutes after administration,28%
same,Percent Inhibition of Writhing,mouse writhing; 180 minutes after administration,5%
same,inhibition of mouse writhing (in words),"mouse writhing; dextropropoxyphene napsylate 10 mg/kg p.o. alone, 60 minutes prior to assessment",no inhibition of the writhing
same,ED50 of dextropropoxyphene napsylate alone relative to that with fluoxetine hydrochloride,"mouse writhing; s.c., 30 minutes, 20 mg/kg fluoxetine hydrochloride s.c. concomitantly",twice the amount needed
